Results reported in patent US5559101A, “L-ribofuranosyl nucleosides” (priority 1994, dated 1996).
In brackets after ≈: the same amount, converted by molar mass. Where two headings read alike, the source gives them in different places.

Legend:
[1] = In vitro survival of bone marrow control cells (radiometric BACTEC); type: cell-based; set-up: concentration or dose not given beside the values
Excerpt: (§1) CELL LINES: Eight different established human cell lines CALU (lung), COLO320 (colon), H578St (breast), HT-29 (colon), MCF-7 (breast), OM-1 (colon), SKLU (lung) and SKMES(lung), and two control cell lines (bone marrow and/or fibroblast cells) were utilized. All cell lines were obtained from the Tumor Cloning Laboratory, Institute for Drug Development, Cancer Therapy and Research Center, San Antonio, Tex. All cell lines grew as monolayers in the appropriate culture medium supplemented with heat-inactivated calf serum. All reagents were obtained from Grand Island Biological Co., Grand Island, N.Y.
(§2) The iv formulations of the compounds of the present invention were prepared with sterile buffered saline and stored at -70° C. until required for testing.
(§3) Following trypsinization, tumor cells were suspended in tissue culture medium and exposed to the antitumor agents continuously at three different concentrations: 10, 1 and 0.1 μg/ml.
(§4) RADIOMETRIC MEASUREMENT OF GROWTH INHIBITION: Growth inhibition was assessed with the BACTEC System 460 (Johnston Laboratories, Towson, Md.) after addition of the antitumor agent to the cell in the respective growth medium containing ^14 C-glucose at a final concentration of 2 μCi/ml.
(§5) Two mls of the tumor cell suspension containing radioactive glucose were seeded into sterile, disposable 15 ml vials by injection through self-sealing rubber-aluminum caps. […] The seeded vials were then incubated at 37° C. Measurement of the release of ^14 CO2 resulting from the metabolism of ^14 C-glucose were performed on days 6, 9, 12 and 15 in the BACTEC instrument. This instrument flushes the ^14 CO2 containing air out of the vials into an ionization chamber that converts dpm to growth index values. […] Each data point represents triplicate values.
(§6) All compounds were dosed on an equimilimolar basis.

OM-1 (colon) = assay: Radiometric growth inhibition of tumor cells, OM-1; type: cell-based, human; set-up: % SURVIVAL TUMOR: concentration or dose not given beside the values; settings: for IC50: Homo sapiens
Excerpt: as §1, §2, §3, §4, §5, §6

COLO320 (colon) = assay: Radiometric growth inhibition of tumor cells, COLO320; type: cell-based, human; set-up: % SURVIVAL TUMOR: concentration or dose not given beside the values; settings: for % SURVIVAL TUMOR: continuous exposure; for IC50: Homo sapiens, COLO 320
Excerpt: as §1, §2, §3, §4, §5, §6

SKLU (lung) = assay: Radiometric growth inhibition of tumor cells, SKLU; type: cell-based, human; set-up: % SURVIVAL TUMOR: concentration or dose not given beside the values; settings: for IC50: Homo sapiens
Excerpt: as §1, §2, §3, §4, §5, §6

CALU (lung) = assay: Radiometric growth inhibition of tumor cells, CALU; type: cell-based, human
Excerpt: as §1, §2, §3, §4, §5, §6

HS578T (breast) = assay: Radiometric growth inhibition of tumor cells, HS578T; type: cell-based, human; settings: HS578T; for % SURVIVAL TUMOR: continuous exposure; for IC50: Homo sapiens, Hs-578T, concentration required to kill 50%, read-out: IC 50
Excerpt: as §1, §2, §3, §4, §5, §6

MCF-7 (breast) = assay: Radiometric growth inhibition of tumor cells, MCF-7; type: cell-based, human; set-up: % SURVIVAL TUMOR: concentration or dose not given beside the values; settings: MCF-7
Excerpt: as §1, §2, §3, §4, §5, §6

HT29 (colon) = assay: Radiometric growth inhibition of tumor cells, HT29; type: cell-based, human; set-up: % SURVIVAL TUMOR: concentration or dose not given beside the values; settings: for IC50: Homo sapiens, HT-29, concentration required to kill 50%, read-out: IC 50
Excerpt: as §1, §2, §3, §4, §5, §6

[2] = bone marrow control cells, continuous exposure, read-out: % SURVIVAL BONE MARROW
[3] = OM-1, concentration required to kill 50%, read-out: IC 50
[4] = SKLU, concentration required to kill 50%, read-out: IC 50
[5] = COLO320, concentration required to kill 50%, read-out: IC 50

O=c1ccn2c(n1)O[C@H]1[C@@H](O)[C@H](CO)O[C@H]12 [O^2,O^2' -Anhydro-1-α-L-ribofuranosyluracil]
viability [1, 2]: 70.9% | IC50 (OM-1 (colon); [3]): 2.97 µg/mL (≈ 13.1 µM) | % SURVIVAL TUMOR (OM-1 (colon); OM-1, continuous exposure): 46.4%

Nc1ccn([C@@H]2O[C@@H](CO)[C@H](O)[C@@H]2O)c(=O)n1 [α-L-ribofuranosyl cytosine, 1-α-L-Ribofuranosylcytosine]
viability [1, 2]: 120% | % SURVIVAL TUMOR (COLO320 (colon); COLO320): 82.3% | IC50 (COLO320 (colon)): 34.9 µg/mL (≈ 143 µM) | IC50 (SKLU (lung)): 240 µg/mL (≈ 987 µM) | % SURVIVAL TUMOR (SKLU (lung); SKLU, continuous exposure): 88.8%

O=c1[nH]c(=O)n([C@@H]2O[C@@H](CO)[C@H](O)[C@@H]2O)cc1F [α-L-ribofuranosyl-5-fluorouracil, 1-α-L-ribofuranosyl-5-fluorouracil]
viability [1, 2]: 94.6% | IC50 (OM-1 (colon); [3]): 0.87 µg/mL (≈ 3.32 µM) | % SURVIVAL TUMOR (OM-1 (colon); OM-1, continuous exposure): 0.4% | IC50 (SKLU (lung); [4]): 43.4 µg/mL (≈ 166 µM) | % SURVIVAL TUMOR (SKLU (lung); SKLU, continuous exposure): 71%

O=c1ccn([C@@H]2O[C@@H](CO)[C@H](O)[C@@H]2O)c(=O)[nH]1 [α-L-ribofuranosyl-uracil, 1-α-L-Ribofuranosyluracil]
viability ([1]; bone marrow cells): 96.6% | IC50 (CALU (lung); Homo sapiens, CALU, concentration required to kill 50%, read-out: IC 50): > 10 µg/mL | % SURVIVAL TUMOR (CALU (lung); human, calu lung tumor cells): 89.1%

O=c1[nH]cnc2c1ncn2[C@H]1O[C@@H](CO)[C@H](O)[C@@H]1O [β-:-ribofuranosyl hypoxanthine, 9-β-L-Ribofuranosylhypoxanthine]
viability [1, 2]: 118% | % SURVIVAL TUMOR (COLO320 (colon); COLO320): 68.2% | IC50 (COLO320 (colon); [5]): 17.9 µg/mL (≈ 66.7 µM) | % SURVIVAL TUMOR (HS578T (breast)): 93.4% | IC50 (HS578T (breast)): > 10 µg/mL | IC50 (MCF-7 (breast); Homo sapiens, MCF7, concentration required to kill 50%, read-out: IC 50): 38.1 µg/mL (≈ 142 µM) | % SURVIVAL TUMOR (MCF-7 (breast); continuous exposure): 96.8% | IC50 (OM-1 (colon); [3]): 82.7 µg/mL (≈ 308 µM) | % SURVIVAL TUMOR (OM-1 (colon); OM-1, continuous exposure): 87.3% | IC50 (SKLU (lung); [4]): 48.1 µg/mL (≈ 179 µM) | % SURVIVAL TUMOR (SKLU (lung); SKLU, continuous exposure): 82.5%

Nc1ncnc2c1ncn2[C@H]1O[C@@H](CO)[C@H](O)[C@@H]1O [β-L-ribofuranosyl adenine, 9-β-L-Ribofuranosyladenine]
viability ([1]; bone marrow cells): 91.2% | IC50 (OM-1 (colon); [3]): 4.23 µg/mL (≈ 15.8 µM) | % SURVIVAL TUMOR (OM-1 (colon); human, om-1 colon tumor cells): 50.9%

Nc1ccn([C@H]2O[C@@H](CO)[C@H](O)[C@@H]2O)c(=O)n1 [β-L-ribofuranosyl cytosine, 1-β-L-Ribofuranosylcytosine]
viability [1, 2]: 72.6% | IC50 (OM-1 (colon)): 5.9 µg/mL (≈ 24.3 µM) | % SURVIVAL TUMOR (OM-1 (colon); OM-1, continuous exposure): 39.2%

Nc1nc(O)c2ncn([C@H]3O[C@@H](CO)[C@H](O)[C@@H]3O)c2n1 [β-L-ribofuranosyl guanine, 9-β-L-Ribofuranosylguanine]
viability [1, 2]: 170% | % SURVIVAL TUMOR (HT29 (colon); HT29, continuous exposure): 80.9% | IC50 (HT29 (colon); HT29): > 10 µg/mL | IC50 (OM-1 (colon); [3]): 0.097 µg/mL (≈ 0.342 µM) | % SURVIVAL TUMOR (OM-1 (colon); OM-1, continuous exposure): 44.7%

O=c1ccn([C@H]2O[C@@H](CO)[C@H](O)[C@@H]2O)c(=O)[nH]1 [β-L-ribofuranosyl uracil, 1-β-L-Ribofuranosyluracil]
viability ([1]; bone marrow cells): 112% | IC50 (HT29 (colon); HT29): > 10 µg/mL | % SURVIVAL TUMOR (HT29 (colon); human, ht29 colon tumor cells): 78.7% | IC50 (OM-1 (colon); [3]): 0.094 µg/mL (≈ 0.385 µM) | % SURVIVAL TUMOR (OM-1 (colon); human, om-1 colon tumor cells): 30.8%

O=c1[nH]c(=O)n([C@H]2O[C@@H](CO)[C@H](O)[C@@H]2O)cc1F [β-L-ribofuranosyl-5-fluorouracil, 1-β-L-Ribofuranosyl-5-fluorouracil]
viability [1, 2]: 130% | % SURVIVAL TUMOR (COLO320 (colon); COLO320): 81.9% | IC50 (COLO320 (colon); [5]): 188 µg/mL (≈ 717 µM) | % SURVIVAL TUMOR (HT29 (colon); HT29, continuous exposure): 64.7% | IC50 (HT29 (colon); HT29): 51 µg/mL (≈ 195 µM) | IC50 (OM-1 (colon); [3]): 37.8 µg/mL (≈ 144 µM) | % SURVIVAL TUMOR (OM-1 (colon); OM-1, continuous exposure): 71.9% | IC50 (SKLU (lung); [4]): 32.2 µg/mL (≈ 123 µM) | % SURVIVAL TUMOR (SKLU (lung); SKLU, continuous exposure): 69.7%

Nc1nc(S)c2ncn([C@H]3O[C@@H](CO)[C@H](O)[C@@H]3O)c2n1 [β-L-ribofuranosyl-6-thioguanine, 9-β-L-Ribofuranosyl-6-thioguanine]
viability ([1]; bone marrow cells): 97.4% | % SURVIVAL TUMOR (HS578T (breast)): 66.6% | IC50 (HS578T (breast)): 17.1 µg/mL (≈ 57.1 µM) | IC50 (OM-1 (colon); [3]): 42.7 µg/mL (≈ 143 µM) | % SURVIVAL TUMOR (OM-1 (colon); human, om-1 colon tumor cells): 83.1% | IC50 (SKLU (lung); [4]): 8.7 µg/mL (≈ 29.1 µM) | % SURVIVAL TUMOR (SKLU (lung); human, sklu lung tumor cells): 45.1%
